Each structure is given as a SMILES string.

In experiment [1] the test system is J774.2 monocyte macrophage lineage cells. In words: In vitro protein prenylation assay (mevalonate pathway). The experiment is classed as cell-based. The conditions noted are these: 25 μM or equimolar concentration; 24 hours. The procedure:
The assay used was as described by Ali N et al., Small GTPases 6(4):202-11 (2015). Briefly, this involved incubation of cells with the compounds for 24 hours at increasing doses of drugs and then an in vitro prenylation assay being performed on protein extracts. Immunoblotting (western blotting) was carried out to identify an exemplar unprenylated protein, with a band indicating drug activity affecting the mevalonate pathway.

For another experiment, the system named is MC3T3-E1 cells. Description: Alkaline phosphatase activity assay (p-nitrophenyl phosphate) in osteoblasts. The experiment is classed as cell-based. As to conditions: 5 μM; osteogenic media; without rhBMP-2. On the procedure:
A p-nitrophenyl phosphate assay was performed for alkaline phosphatase activity (Sigma-Aldrich) and normalized to day-3 cells grown in osteogenic media and α-MEM media. Assays were performed in triplicate with two independent repeats.

Another experiment concerns cultured cells. The conditions noted are these: Schindeler et al. 2015; cited from earlier work.
Experiment [2] in a line: Hydroxyapatite (HA) binding assay, HPLC of supernatant. As to conditions: after 60 minutes of incubation with HA.
Experimental: To analyze the reduction in peak height due to HA binding, 100 μL of supernatant was withdrawn at predetermined time points and analyzed by HPLC.

Regarding `CCCCCN(CCCCC)CCC[C@@H](C)[C@H]1CC[C@H]2[C@@H]3[C@H](OCCCN)C[C@@H]4C[C@H](OCCCN)CC[C@]4(C)[C@H]3CC(OCCCN)[C@]12C` (some centres unmarked) [CSA-90], in experiment [1], the “Effect on protein prenylation (unprenylated protein band, western blot)” value is listed as “did not induce a noticeable or comparable protein prenylation effect”. Further, the “Alkaline phosphatase expression / osteogenic potential, compound alone” value in the experiment with MC3T3-E1 cells was “increased alkaline phosphatase expression”. Besides, in the experiment with cultured cells, the “Pro-osteogenic activity, potentiation of rhBMP-2” value was “pro-osteogenic activity”. In addition, the “Reduction in peak height on HA incubation (in words)” value in experiment [2] is on record as “no, or very low, reduction in peak height”.
Take `NCCCC(O)(P(=O)(O)O)P(=O)(O)O` [alendronate]: in experiment [1], the “Effect on protein prenylation (unprenylated protein band, western blot)” value is reported as “potent effect on protein prenylation”.

Source of the values: patent publication US20220273673A1, “BONE-BINDING COMPOUNDS” (BRIGHAM YOUNG UNIVERSITY, priority 2019, published 2022).
